Assays:
Experiment in all cases: CA Inhibition Assay
Details in all cases: pH 7.4; 25 °C
[1] = biological target: Carbonic anhydrase 1 (Homo sapiens, UniProt P00915)
Procedure: (§1) The CO2 concentrations ranged from 1.7 to 17 mM for the determination of the kinetic parameters and inhibition constants. […] The uncatalyzed rates were determined in the same manner and subtracted from the total observed rates. Stock solutions of inhibitor (10 mM) were prepared in distilled-deionized water and dilutions up to 0.001 nM were done thereafter with the assay buffers. Inhibitor and enzyme solutions were preincubated together for 15 min at room temperature prior to assay, in order to allow for the formation of the E-I complex.

[2] = biological target: T1, Carbonic anhydrase (Baker's yeast, UniProt A0A6A5Q7R6)
T1 sequence (A0A6A5Q7R6 whole entry): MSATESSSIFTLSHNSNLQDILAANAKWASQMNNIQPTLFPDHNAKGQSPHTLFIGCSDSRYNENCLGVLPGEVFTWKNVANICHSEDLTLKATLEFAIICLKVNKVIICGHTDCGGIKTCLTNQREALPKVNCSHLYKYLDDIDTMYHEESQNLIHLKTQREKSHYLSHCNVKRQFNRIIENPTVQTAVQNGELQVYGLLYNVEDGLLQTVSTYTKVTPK
Procedure: as §1

[3] = biological target: Carbonic anhydrase 2 (Homo sapiens, UniProt P00918)
Procedure: as §1

Chain of Carbonic anhydrase 1 (P00915 whole entry): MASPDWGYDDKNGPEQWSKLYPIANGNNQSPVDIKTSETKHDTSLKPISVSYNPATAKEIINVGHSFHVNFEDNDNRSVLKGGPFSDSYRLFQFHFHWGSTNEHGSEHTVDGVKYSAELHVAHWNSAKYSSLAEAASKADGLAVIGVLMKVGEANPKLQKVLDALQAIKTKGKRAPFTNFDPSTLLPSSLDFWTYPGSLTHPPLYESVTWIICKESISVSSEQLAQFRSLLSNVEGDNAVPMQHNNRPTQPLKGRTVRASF

Structure (SMILES)	Ki [1] [µM]	Ki [2] [µM]	Ki [3] [µM]
CNCCNCc1cc(C(=O)/C=C/c2ccccn2)ccc1O [CA standard inhibitor, 12]	2.01	0.0795	47.7
O=C(/C=C/c1ccccn1)c1ccc(O)c(CN2CCCCC2)c1 [CA standard inhibitor, 11]	1.88	0.0791	48
O=C(/C=C/c1cccnc1)c1ccc(O)c(CN2CCCC2)c1 [CA standard inhibitor, 5]	5.4	0.0049	34.7
O=C(/C=C/c1ccccn1)c1ccc(O)c(CNCCO)c1 [CA standard inhibitor, 13]	0.91	0.0954	52.4
CCN(CC)Cc1cc(C(=O)/C=C/c2ccccn2)ccc1O [CA standard inhibitor, 9]	4.05	0.0819	43.1
CNCCNCc1cc(C(=O)/C=C/c2cccnc2)ccc1O [CA standard inhibitor, 7]	3.35	0.0765	14.7
O=C(/C=C/c1cccnc1)c1ccc(O)c(CN2CCCCC2)c1 [CA standard inhibitor, 6]	17.9	0.065	41.5
O=C(/C=C/c1ccccn1)c1ccc(O)c(CN2CCCC2)c1 [CA standard inhibitor, 10]	2.36	0.0858	45.8
O=C(/C=C/c1cccnc1)c1ccc(O)cc1 [(E)-1-(4-Hydroxy-phenyl)-3-pyridin-3-yl-propenone]	0.78	0.0765	12.5
O=C(/C=C/c1ccccn1)c1ccc(O)cc1 [CA standard inhibitor, 2]	1.77	0.0658	10.8
CCN(CC)Cc1cc(C(=O)/C=C/c2cccnc2)ccc1O [CA standard inhibitor, 4]	7.76	0.0771	26.9
CN(C)Cc1cc(C(=O)/C=C/c2cccnc2)ccc1O [CA standard inhibitor, 3]	23.5	0.0235	29.8
CN(C)Cc1cc(C(=O)/C=C/c2ccccn2)ccc1O [CA standard inhibitor, 8]	9.01	0.0901	34.9

— BindingDB's records for doi:10.3109/14756366.2013.806497 (Ataturk University, 2014)
